≈ marks a conversion by molar mass, not a printed value.
Assays:
[1] = system: Staphylococcus aureus cultures; assay: Agar dilution susceptibility test, phenylthioacetyl cephalosporins vs methicillin resistant S. aureus (Example 9); assay type: cell-based; conditions: Staphylococcus aureus, read-out: MIC
Excerpt: This example compares the antibiotic activities of three known compounds, methicillin, cephalothin, and cephaloridine, with three compounds from the above examples, in terms of minimum inhibitory concentration (MIC) values in microgram/milliliter units against various isolates of Staphylococcus aureus cultures. The culture numbers and the procedures used to obtain the reported data are disclosed by W. E. Wick and D. A. Preston in their article "Heterogeneous Methicillin-Resistant Staphylococcus Aureus" which appeared in Progress in Antimicrobial And Anticancer Chemotherapy, Proceedings of the 6th International Congress of Chemotherapy, Volume, 1, U. of Tokyo Press, Tokyo, (1970). In these agardilution susceptibility tests, the inocula were diluted to 10^3 bacteria per spot. Cultures 3055 (benzylpenicillin sensitive) and H232 (benzylpenicillin-resistant) are controls. The remaining cultures are methicillin-resistant, and, except for 3136, are clinical isolates. Culture 3136 is a 4th transfer laboratory selected mutant.

[2] = system: Staphylococcus aureus cultures; assay: Broth dilution MIC in trypticase soy broth, low and high NaCl (Example 10); assay type: cell-based; conditions: Staphylococcus aureus, TSB, read-out: MIC
Protocol: This example compares the antibiotic activities of methicillin, cephalothin and cephaloridine with the compounds of Examples 1, 2 and 3, in broth dilution tests. The MIC values, in μg/ml., are against the same Staphylococcus aureus cultures described in Example 9, except that in this example the cultures were grown in trypticase soy broth (TSB). Growing the cultures in two broth cultures, one having a low (0.5 percent) sodium chloride content and one having a high (5.0 percent) sodium chloride content is said to assist in identifying the methicillin-resistant cultures from those which are not methicillin-resistant. […] See Chabbert, Y. A., 1967 Postgrad. Med. J., 43 (suppl); 40-46. One expects that similar changes in MIC values for this type of culture to other β-lactam antibiotics, e.g., various penicillins and cephalosporins, to have similar implications. […] That is, methicillin-resistant S.aureus cultures are susceptible to the cephalosporin antibiotics used in this invention.

[3] = culture 3131, table part marked b
[4] = culture 3131, table part marked c
[5] = culture 3135, table part marked b
[6] = culture 3135, table part marked c
[7] = culture 3136, table part marked b
[8] = culture 3136, table part marked c
[9] = culture 3137, table part marked b
[10] = culture 3137, table part marked c
[11] = culture 3138, table part marked b
[12] = culture 3138, table part marked c
[13] = culture 3139, table part marked b
[14] = culture 3139, table part marked c
[15] = culture (Seattle) 966, table part marked b
[16] = culture (Seattle) 966, table part marked c
[17] = culture S61, table part marked b
[18] = culture S61, table part marked c

`O=C(Cc1cccs1)N[C@@H]1C(=O)N2C(C(=O)[O-])=C(C[n+]3ccccc3)CS[C@H]12` [Cephaloridine, cephaloridine, reference compound] was tested, and the MIC ([1]; culture 3055 (control, benzylpenicillin sensitive), table part marked b) was under 0.06 µg/mL, the MIC ([1]; culture 3055 (control, benzylpenicillin sensitive), table part marked c) was 0.25 µg/mL (≈ 0.602 µM) and the MIC ([1]; culture 3130, table part marked b) was 4 µg/mL (≈ 9.63 µM). The MIC ([1]; culture 3130, table part marked c) was 8 µg/mL (≈ 19.3 µM), the MIC [1, 3] was 1 µg/mL (≈ 2.41 µM) and the MIC [1, 4] was 16 µg/mL (≈ 38.5 µM). For the same molecule, the MIC ([1]; culture 3132, table part marked b) was 2 µg/mL (≈ 4.81 µM), the MIC ([1]; culture 3132, table part marked c) was 2 µg/mL (≈ 4.81 µM) and the MIC ([1]; culture 3133, table part marked b) was 4 µg/mL (≈ 9.63 µM). The MIC ([1]; culture 3133, table part marked c) was 16 µg/mL (≈ 38.5 µM), the MIC ([1]; culture 3134, table part marked b) was 8 µg/mL (≈ 19.3 µM) and the MIC ([1]; culture 3134, table part marked c) was 16 µg/mL (≈ 38.5 µM). For the same molecule, the MIC [1, 5] was 1 µg/mL (≈ 2.41 µM), the MIC [1, 6] was 8 µg/mL (≈ 19.3 µM) and the MIC [1, 7] was 0.25 µg/mL (≈ 0.602 µM). The MIC [1, 8] was 16 µg/mL (≈ 38.5 µM), the MIC [1, 9] was 8 µg/mL (≈ 19.3 µM) and the MIC [1, 10] was 32 µg/mL (≈ 77 µM). The MIC [1, 11] was 8 µg/mL (≈ 19.3 µM), the MIC [1, 12] was 16 µg/mL (≈ 38.5 µM) and the MIC [1, 13] was 1 µg/mL (≈ 2.41 µM). The MIC [1, 14] was 4 µg/mL (≈ 9.63 µM), the MIC [1, 15] was 0.25 µg/mL (≈ 0.602 µM) and the MIC [1, 16] was 0.25 µg/mL (≈ 0.602 µM). For the same molecule, the MIC ([1]; culture H232 (control, benzylpenicillin-resistant), table part marked b) was under 0.06 µg/mL, the MIC ([1]; culture H232 (control, benzylpenicillin-resistant), table part marked c) was under 0.06 µg/mL and the MIC ([1]; culture Kavarmark 1138501, table part marked b) was 1 µg/mL (≈ 2.41 µM). The MIC ([1]; culture Kavarmark 1138501, table part marked c) was 4 µg/mL (≈ 9.63 µM), the MIC [1, 17] was 4 µg/mL (≈ 9.63 µM) and the MIC [1, 18] was 16 µg/mL (≈ 38.5 µM). It also gave an MIC [2, 3] of 2 µg/mL (≈ 4.81 µM), an MIC [2, 4] of 16 µg/mL (≈ 38.5 µM) and an MIC ([2]; culture 3132 (first column so headed), table part marked b) of 2 µg/mL (≈ 4.81 µM). It also gave an MIC ([2]; culture 3132 (first column so headed), table part marked c) of 16 µg/mL (≈ 38.5 µM), an MIC ([2]; culture 3132 (second column so headed), table part marked b) of 1 µg/mL (≈ 2.41 µM) and an MIC ([2]; culture 3132 (second column so headed), table part marked c) of 16 µg/mL (≈ 38.5 µM). It also gave an MIC [2, 5] of 2 µg/mL (≈ 4.81 µM), an MIC [2, 6] of 16 µg/mL (≈ 38.5 µM) and an MIC [2, 7] of under 0.5 µg/mL. It also gave an MIC [2, 8] of 16 µg/mL (≈ 38.5 µM), an MIC [2, 9] of 8 µg/mL (≈ 19.3 µM) and an MIC [2, 10] of 32 µg/mL (≈ 77 µM). The MIC [2, 11] was 4 µg/mL (≈ 9.63 µM), the MIC [2, 12] was 16 µg/mL (≈ 38.5 µM) and the MIC [2, 13] was 1 µg/mL (≈ 2.41 µM). For the same molecule, the MIC [2, 14] was 8 µg/mL (≈ 19.3 µM), the MIC [2, 15] was 4 µg/mL (≈ 9.63 µM) and the MIC [2, 16] was 8 µg/mL (≈ 19.3 µM). For the same molecule, the MIC ([2]; culture Kavarnick 1138501, table part marked b) was 2 µg/mL (≈ 4.81 µM), the MIC ([2]; culture Kavarnick 1138501, table part marked c) was 16 µg/mL (≈ 38.5 µM) and the MIC [2, 17] was 4 µg/mL (≈ 9.63 µM). The MIC [2, 18] was 64 µg/mL (≈ 154 µM), the MIC ([2]; culture S, table part marked b) was 4 µg/mL (≈ 9.63 µM) and the MIC ([2]; culture S, table part marked c) was 16 µg/mL (≈ 38.5 µM).

Reference: patent US4175125A, “Method for treating methicillin resistant staphylococcus aureus” (Eli Lilly and Company, priority 1978, dated 1979)
